In brackets after ≈: the same amount, converted by molar mass. Structures can show the parent of a compound that is named as a salt.
Experiments:
[1] = system: Trichophyton mentagrophytes; assay: Liquid broth assay (MIC); format: cell-based; conditions: for MIC: Trichophyton mentagrophytes, 672 h, liquid (broth) culture, incubated up to 4 weeks, one value without distinguishing the two dermatophytes, read-out: minimal inhibitory concentration (MIC); for antifungal activity ranking: liquid broth assay, rank 1 = most active, same ranking for both dermatophytes
Method: (§1) The minimum inhibitory concentration (MIC) of various test agents were tested in a standard protocol against two dermatophytes: Trichophyton rubrum and Trichophyton mentagrophyles:
(§2) Trichophyton rubrum and Trichophyton mentagrophytes were grown on potato dextrose agar (PDA) at 30° C. for 1-5 weeks. One clone was picked randomly and grown in sabouraud dextrose broth (SDB) to a density of 1×10^6 colony forming units (cfu) per ml. Various concentrations of test agents were added to the dermatophyte cultures and incubated for up to 4 weeks. Each week, an aliquot of the liquid culture was taken and placed on a PDA plate, and incubated for up to 3 weeks to assess growth. The plates were examined and photographed each week. Cultures were considered positive when more than 2 colonies were found per plate.

Trichophyton rubrum = assay: Liquid broth assay (MIC); format: cell-based; conditions: for MIC: Trichophyton rubrum, 672 h, liquid (broth) culture, incubated up to 4 weeks, one value without distinguishing the two dermatophytes, read-out: minimal inhibitory concentration (MIC); for antifungal activity ranking: liquid broth assay, rank 1 = most active, same ranking for both dermatophytes
Method: as §1, §2

| SMILES | MIC [1] | MIC (Trichophyton rubrum) | antifungal activity ranking [1] | antifungal activity ranking (Trichophyton rubrum) |
| --- | --- | --- | --- | --- |
| CCCCc1ccc(C(=O)O)nc1 [Fusaric acid, fusaric Acid] | 500 mg/L (≈ 2790 µM) | 500 mg/L (≈ 2790 µM) | 6 | 6 |
| CC(=O)N1CCN(c2ccc(OCC3COC(Cn4ccnc4)(c4ccc(Cl)cc4Cl)O3)cc2)CC1 (stereo not drawn) [ketoconazole] | – | – | 3 | 3 |
| Clc1ccc(C(Cn2ccnc2)OCc2ccsc2Cl)c(Cl)c1 (stereo not drawn) [tioconazole] | – | – | 2 | 2 |

Second part, led by results:

| MIC [1] | MIC (Trichophyton rubrum) | SMILES | antifungal activity ranking [1] | antifungal activity ranking (Trichophyton rubrum) |
| --- | --- | --- | --- | --- |
| 250 mg/L (≈ 1010 µM) | 250 mg/L (≈ 1010 µM) | CCCCCCCCCC(=O)OCC(O)CO (racemic) [1-monocaprin, 1-decanoyl-rac-glycerol] | 5 | 5 |
| < 3.9 mg/L | < 3.9 mg/L | CN(C/C=C/C#CC(C)(C)C)Cc1cccc2ccccc12 [Terbinafine, terbinafine HCl] | 1 | 1 |
| 31.3 mg/L (≈ 151 µM) | 31.3 mg/L (≈ 151 µM) | Cc1cc(C2CCCCC2)n(O)c(=O)c1 [ciclopirox] | 4 | 4 |
| < 3.9 mg/L | < 3.9 mg/L | Clc1ccc(COC(Cn2ccnc2)c2ccc(Cl)cc2Cl)cc1 (stereo not drawn) [econazole, econazole Nitrate] | 1 | 1 |

From patent publication US20180360791A1, “FATTY ACID MONOGLYCERIDE COMPOSITIONS” (Stiefel Laboratories, Inc., priority 2009, published 2018)
